According to patent US20260240820A1, “METHOD FOR CONTROLLING MEMBRANE POTENTIAL-DEPENDENT ION CHANNEL THROUGH TYPE I TASTE RECEPTORS (T1RS)” (ION CHAT RESEARCH CORPORATE, priority 2022, published 2026):
Entries after “also recorded” stand apart in the source; their conditions may differ.

What was measured:
[1] = tested on: SH-SY5Y cells; test: Cell morphology observation, SH-SY5Y cells; assay type: cell-based, human; details: neuron-like differentiated SH-SY5Y cells
[2] = tested on: HEK cells; test: Cell morphology observation (bright-field), HEK cells; assay type: cell-based, human
Source text: (§1) In a previous implementation example (FIG. 54), it was shown that Aβ peptides and artificial sweeteners cause depolymerization of the cytoskeleton. […] To easily compare and confirm the morphological changes before and after the application of Aβ1-40, the areas of interest were circled with dashed lines. Observations were made using bright-field microscopy. Images were captured with a camera (UI-3880CP-M) from IDS mounted on the microscope, and the images were imported to a PC using the software that came with the camera. Further image processing was done using ImageJ (Rasband, 1997-2018).
The solution (HHBS*) was adjusted to achieve the final concentration values shown in Table 11 for Aβ42/40, and the changes in cell morphology were observed. Indicators included cell body contraction, extension, or the presence of lamellipodia ruffling around the cell periphery.

[3] = tested on: VGSC of NG108-15 cells; test: Whole-cell patch-clamp of VGSC current in differentiated NG108-15 cells; assay type: cell-based, mouse/rat; details: subsequent application
Source text: Specifically, we used mouse/rat hybridoma cells NG108-15 differentiated into neuronal-like cells using forskolin and low-concentration FBS treatment, along with human-derived cells expressing human Nav1.5. We recorded VGSC currents using the whole-cell patch-clamp method and observed the effects of Aβ peptides (FIG. 58A-1, B). The term “Aβ peptides” here refers to a mixture of Aβ40 and Aβ42. We used two types of mixtures similar to those used in the experiments on cell morphology and lamellipodia dynamics. One mixture corresponds to the Aβ42/40 ratio observed in cerebrospinal fluid from healthy individuals (NDC: non-demented control), and the other corresponds to the ratio observed in cerebrospinal fluid from Alzheimer's disease patients with cognitive impairment (AD-D).

[4] = tested on: Nav1.5; test: Patch-clamp (voltage clamp) recording of VGSC current in HEK cells stably expressing Nav1.5; details: for Effect on VGSC current enhanced by Aβ42/40 (AD-D): applied after Aβ42/40 (AD-D)
[5] = tested on: HUEhT-1 cells; test: Cell morphology observation, HUEhT-1 umbilical vein endothelial cells; assay type: cell-based, human; details: Aβ1-40 at 12.5 nM
Source text: as §1

[6] = tested on: Nav1.5 in T1R3-silenced HEK cells; test: VGSC current in HEK Nav1.5 cells with silenced T1R3; assay type: cell-based, human
Procedure, shortened: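 VGSC currents were recorded in HEK-Nav1.5 cells with T1R3 knocked down by a miRNA expression vector, stimulated every 8 s. The effect of Aβ25-35 peptide was compared with control HEK-Nav1.5 cells.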

[7] = tested on: T1R3 inherent in HEK cells; test: Impedance of HEK Nav1.5 cell sheet; assay type: cell-based, human
Protocol: Specifically, cells were cultured on a conductive glass (FTO glass, thickness 2.2 mm) electrode plate to form a sheet, and the change in impedance value of the cell sheet was measured by applying current stimulation between the conductive glass covered with cells and the extracellular solution. The measurement experiment was conducted using the voltage-clamp method. A voltage pulse of 1 mV (1 Hz, 220 ms width) was applied between the silver chloride electrode placed in the extracellular solution and the electrode plate, and the change caused by the amyloid peptide was measured as a change in current (I).
By measuring the current response (I) occurring there, the resistance ® of the entire cell sheet to the applied voltage (1 mV) can be calculated from Ohm's law (V=IR>R=V/I). As shown in (FIG. 46), it was confirmed that the T1R3 antibody inhibits the effect of Aβ1-40 peptide.

[8] = tested on: Nav1.6; test: Patch-clamp recording of VGSC current in HEK (Nav1.6) cells; assay type: cell-based, human
Source text: The cells used in the previous (18-1) experiment were cardiac-type VGSC cells. In this experiment, HEK (Nav1.1) and HEK (Nav1.6) cells, which are considered neuronal VGSC cells, were created. The effects of four peptides—Aβ25-35, Aβ1-38, Aβ1-40, and Aβ1-42—were examined using the same experimental protocol as in (18-1). […]

[9] = tested on: endogenous T1R GPCR of HEK cells; test: Intracellular calcium (Cal-520) in HEK cells stably expressing Nav1.1 with endogenous T1R GPCR; assay type: cell-based, human; details: 10 nM then 20 nM for Aβ1-40 and Aβ1-42
Protocol: Specifically, experiments were conducted as follows using HEK cells stably expressing Nav1.1 (FIG. 45). The calcium-sensitive reagent (Cal-520, AAT Bioquest) was incubated at 37° C. for 60 minutes, followed by incubation at room temperature for 30 minutes, and then changes in intracellular calcium were measured using a fluorescence microscope. […] Initially, 10 nM, followed by 20 nM of Aβ1-40 was applied after 5 minutes (arrow). […] A total of 6 cell groups from two independent experiments were measured, averaged by the maximum fluorescence response value, and the mean and standard error (stderr) were calculated and plotted. […] 10 nM, followed by 20 nM of Aβ1-42 was applied after 5 minutes (arrow). […] A total of 12 cell groups from two independent experiments were measured, averaged by the minimum fluorescence response value, and the mean and standard error (stderr) were calculated and plotted. Similar to the experimental results using the patch-clamp method when Aβ peptide was applied to Nav1.5, it was confirmed from intracellular calcium measurements that the effects of Aβ1-40 and Aβ1-42 were different.

[10] = tested on: Nav1.1; test: Patch-clamp recording of VGSC current in HEK (Nav1.1) cells; assay type: cell-based, human
Source text: The cells used in the previous (18-1) experiment were cardiac-type VGSC cells. In this experiment, HEK (Nav1.1) and HEK (Nav1.6) cells, which are considered neuronal VGSC cells, were created. The effects of four peptides—Aβ25-35, Aβ1-38, Aβ1-40, and Aβ1-42—were examined using the same experimental protocol as in (18-1).

Compound | Lamellipodia activity [1] | Effect on cell motility ([2]; 5 μM) | Effect on cells contracted and inactive due to Aβ AD ([2]; HEK cells, data not shown) | Effect on VGSC current after Aβ42/40 (AD-D) [3] | Effect on VGSC current enhanced by Aβ42/40 (AD-D) [4] | Effect on VGSC current enhanced by Aβ42/40 (AD-D) ([4]; listed as D-alanine) | Change in cell morphology [5] | Change in cell morphology ([5]; listed as Aβ40) | Effect on VGSC in T1R3-silenced cells [6] | Change of impedance of cell sheet [7] | Effect on VGSC current [8] | Change in cell morphology ([2]; Aβ1-40 at 12.5 nM) | Change in intracellular calcium [9] | Effect on VGSC current [10] | Effect on VGSC current amplitude [4] | Shift of steady-state inactivation (S-S) curve of VGSC [4]
NCCC(=O)O [β-alanine] | enhances lamellipodia activity | promotes cell motility | induces activity in cells | did not cause any further changes | reversed; also recorded: reverse the enhancement of VGSC current; also recorded: nearly returned to the control level | nearly restoring it to control levels | – | – | – | – | – | – | – | – | – | –
Aβ1-40: amyloid β peptide, Sequence No. 3 | – | – | – | – | – | – | a decrease in cell area/volume | significant cell body contraction (atrophy) | is lost | decrease in impedance | VGSC enhancement | a decrease in cell area/volume | increased intracellular calcium levels; also recorded: continued to slowly increase | VGSC enhancement | reduced VGSC currents for both prepulse potentials | to the left; also recorded: more towards the hyperpolarizing direction
